Experiments:
[1] = system: IFN; assay: Cytokine Induction in Human Cells: interferon (IFN) secreted by PBMCs, A549/encephalomyocarditis bioassay; assay type: cell-based; details: 18 to 24 hours; further: call rule not given here
How it was run: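 Human PBMCs from healthy donors at 1.5-2×10^6 cells/mL in RPMI with 10% FBS, exposed to compounds (typically 0.1 to 100 μM, ≤1% DMSO) for 18 to 24 h at 37° C. Secreted IFN measured by A549/encephalomyocarditis virus cytopathic-effect bioassay, in alpha reference units/mL against NIH human leukocyte IFN standard.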

[2] = system: TNF; assay: Cytokine Induction in Human Cells: tumor necrosis factor (TNF) secreted by PBMCs, ELISA; assay type: cell-based; details: 18 to 24 hours; further: call rule not given here
How it was run: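 Human donor PBMCs at 1.5-2×10^6 cells/mL in RPMI with 10% FBS were exposed to compound, generally at 0.1 to 100 μM (≤1% DMSO final), for 18 to 24 h at 37 °C. Secreted TNF in supernatant was measured by ELISA and reported as pg/mL.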

SMILES | melting point | IFN induction ([1]; Dose Concentration 0.1 μM) | IFN induction ([1]; Dose Concentration 1.0 μM) | IFN induction ([1]; Dose Concentration 10.0 μM) | IFN induction ([1]; Dose Concentration 100.0 μM) | TNF induction ([2]; Dose Concentration 0.1 μM) | TNF induction ([2]; Dose Concentration 1.0 μM) | TNF induction ([2]; Dose Concentration 10.0 μM) | TNF induction ([2]; Dose Concentration 100.0 μM)
CCCCc1nc2c(N)nc3cccnc3c2n1CCNC(=O)c1cccc(O)n1 [Example 99, N-[2-(4-Amino-2-butyl-1H-imidazo[4,5-c][1,5]naphthyridin-1-yl)ethyl]-6-hydroxy-2-pyridinecarboxamide] | 258 to 260 °C | − | − | + | + | − | − | + | +
CCCCc1nc2c(N)nc3cccnc3c2n1CCNC(=O)c1c(C)noc1C [Example 103, N-[2-(4-Amino-2-butyl-1H-imidazo[4,5-c][1,5]naphthyridin-1-yl)ethyl]-3,5-dimethyl-4-isoxazolecarboxamide] | 188 to 189 °C | − | − | + | + | − | − | + | +
CCCCc1nc2c(N)nc3c(c2n1CCNC(=O)c1cc(C(C)(C)C)c(O)c(C(C)(C)C)c1)NCCC3 [Example 104, N^1-[2-(4-Amino-2-butyl-6,7,8,9-tetrahydro-1H-imidazo[4,5-c][1,5]naphthyridin-1-yl)ethyl]-3,5-di-(1,1-dimethylethyl)-4-hydroxybenzamide] | 208 to 210 °C | − | + | + | − | − | − | + | −
CCCCc1nc2c(N)nc3cccnc3c2n1CCCCNC(=O)CSc1ccncc1 [Example 110, N^1-[4-(4-Amino-2-butyl-1H-imidazo[4,5-c][1,5]naphthyridin-1-yl)butyl]-2-(4-pyridylsulfanyl)acetamide] | 127.5 to 129 °C | + | + | + | + | − | + | + | +
NCCCCn1cnc2c(N)nc3cccnc3c21 [Example 111, 4-(4-amino-1H-imidazo[4,5-c][1,5]naphthyridin-1-yl)butaneamine] | 161 to 163 °C | − | − | + | + | − | − | + | +
CCCCc1nc2c(N)nc3cccnc3c2n1CCCCNC(=O)c1ccc(C(OCCN(C)C)c2ccccc2)cc1 (centres unmarked) [Example 112, N^1-[4-(4-Amino-2-butyl-1H-imidazo[4,5-c][1,5]naphthyridin-1-yl)butyl]-4-{[2-(dimethylamino)ethoxy](phenyl)methyl}benzamide] | 105 to 108 °C | + | + | + | ± | + | + | − | −
CCCCc1nc2c(N)nc3cccnc3c2n1CCNC(=O)CCCCCC1NC(=O)NC1C (centres unmarked) [Example 115, N^1-[4-(4-Amino-2-butyl-1H-imidazo[4,5-c][1,5]naphthyridin-1-yl)ethyl]-6-(5-methyl-2-oxo-4-imidazolidinyl)hexamide] | 184 to 186 °C | − | − | + | + | − | − | + | +

The next lines start with results.

melting point | SMILES | IFN induction ([1]; Dose Concentration 0.1 μM) | IFN induction ([1]; Dose Concentration 1.0 μM) | IFN induction ([1]; Dose Concentration 10.0 μM) | IFN induction ([1]; Dose Concentration 100.0 μM) | TNF induction ([2]; Dose Concentration 0.1 μM) | TNF induction ([2]; Dose Concentration 1.0 μM) | TNF induction ([2]; Dose Concentration 10.0 μM) | TNF induction ([2]; Dose Concentration 100.0 μM)
208 to 210 °C | CCCCc1nc2c(N)nc3cccnc3c2n1CCNC(=O)Cc1cccc(O)c1 [Example 98, N^1-[2-(4-Amino-2-butyl-1H-imidazo[4,5-c][1,5]naphthyridin-1-yl)ethyl]-2-(3-hydroxyphenyl)acetamide] | − | + | + | + | − | + | + | +
163 to 164 °C | CCCCc1nc2c(N)nc3cccnc3c2n1CCNC(=O)CC(C)CCC=C(C)C (centres unmarked) [Example 100, N^1-[2-(4-Amino-2-butyl-1H-imidazo[4,5-c][1,5]naphthyridin-1-yl)ethyl]-3,7-dimethyl-6-octenamide] | − | − | + | + | − | − | + | +
184 to 185 °C | CCCCc1nc2c(N)nc3cccnc3c2n1CCNC(=O)C(CC(C)C)NC(=O)OC(C)(C)C (centres unmarked) [Example 101, 1,1-Dimethylethyl N-[1-({[2-(4-Amino-2-butyl-1H-imidazo[4,5-c][1,5]naphthyridin-1-yl)ethyl]amino}carbonyl)-3-methylbutyl]carbamate] | − | − | + | + | − | − |  | +
242 to 244 °C | CCCCc1nc2c(N)nc3cccnc3c2n1CCCCNC(=O)Cn1cc(C)c(O)nc1=O [Example 108, N^1-[4-(4-Amino-2-butyl-1H-imidazo[4,5-c][1,5]naphthyridin-1-yl)butyl]-2-(4-hydroxy-5-methyl-2-oxo-1,2-dihydro-1-pyrimidinyl)acetamide] | + | + | + | + | ± | − | + | +
156 to 160 °C (dec.) | CCCCc1nc2c(N)nc3cccnc3c2n1CCCCNC(=O)CSc1ncccn1 [Example 109, N^1-[4-(4-Amino-2-butyl-1H-imidazo[4,5-c][1,5]naphthyridin-1-yl)butyl]-2-(2-pyrimidinylsulfanyl)acetamide] | + | + | + | + | − | ± | + | +
241 to 242 °C | CCCCc1nc2c(N)nc3cccnc3c2n1CCNC(=O)Cn1cc(C)c(=O)[nH]c1=O [Example 114, N^1-[4-(4-Amino-2-butyl-1H-imidazo[4,5-c][1,5]naphthyridin-1-yl)ethyl]-2-(5-methyl-2,4-dioxo-1,2,3,4-tetrahydro-1-pyrimidinyl)acetamide] | − | − | + | + | − | − | + | +

— US7678918B2, “Intermediates for imidazonaphthyridines” (3M Innovative Properties Company, priority 1997, dated 2010)
